Assay results from patent US11498896B2 (The Broad Institute, Inc., priority 2014, dated 2022).
pEC50, pIC50: −log10 of the molar value.

Legend:
human D2R/β-arrestin [1] = target: T1, human D2R/β-arrestin (Homo sapiens (Human), UniProt P14416); assay: Gi/cAMP agonist assay (Lance Ultra cAMP, forskolin); type: cell-based; conditions: CHO-K1 cells expressing human D2R/β-arrestin; agonist mode, 2.5 μM forskolin
Experimental: Eu-cAMP tracer solution (10 μl, PerkinElmer, 360 μl of Tracer in 17.64 ml kit buffer) and ULight-anti-cAMP solution (10 μl, 120 μL antibody in 17.88 ml kit buffer) was then added to each well.

human D2R/β-arrestin [2] = target: T1, human D2R/β-arrestin; assay: cell-based; conditions: cAMP Antagonist, CHO-K1 cells expressing human D2R/β-arrestin; antagonist mode, 2.5 μM forskolin and 2.7 nM quinpirole
Experimental: Cells were prepared for assays by growing cultures for up to 2 weeks (from about 6-20 passages). A vial of frozen cells was thawed in a water bath held at 37° C. The cells were then transferred into a 50 ml tube with 10 ml growth media. The vial was rinsed with growth media and the contents transferred to the 50 ml tube. The 50 ml tube was centrifuged at 1200 rpm for 5 minutes at room temperature. […] When the cells reached about 90% confluence (approximately 3 days between passages), the cells were passaged and used for either the agonist or antagonist assays as described below.
The cells were prepared for Gi/cAMP assays as described above. The assays were performed using a PE Lance Ultra cAMP kit (TRF0263). The cells were grown on 225 mm dishes, then washed once with 1×PBS (Cellgro) before digestion with 2.5 ml 1× Detachment reagent (DRX 92-0009) for about 2 minutes. PBS (20 ml) was then added to the plate, and the cells were transferred to a 50 ml centrifuge tube, and centrifuged at room temperature using BD Dynac III, at 1200 rpm for 5 minutes. […] The plates were then incubated at room temperature for about 30 minutes before addition of Eu-cAMP tracer solution (10 μl, PerkinElmer) and then ULight-anti-cAMP solution (10 μl) to each well.

human D2R/β-arrestin [3] = target: T1, human D2R/β-arrestin; assay: cell-based; conditions: β-arrestin Antagonist, CHO-K1 cells expressing human D2R/β-arrestin; antagonist mode, quinpirole 130 nM
human D2R/β-arrestin [4] = target: T1, human D2R/β-arrestin; assay: β-arrestin agonist assay (PathHunter); type: cell-based; conditions: CHO-K1 cells expressing human D2R/β-arrestin; agonist mode
Experimental: The detection reagent (9.6 μL, Buffer:Emerald II:Galactor-Star in a 19:5:1 ratio, i.e., 14.06 mL:3.7 mL:0.74 mL=18.5 mL) was then added to the agonist plates.

T1 sequence (P14416 whole entry): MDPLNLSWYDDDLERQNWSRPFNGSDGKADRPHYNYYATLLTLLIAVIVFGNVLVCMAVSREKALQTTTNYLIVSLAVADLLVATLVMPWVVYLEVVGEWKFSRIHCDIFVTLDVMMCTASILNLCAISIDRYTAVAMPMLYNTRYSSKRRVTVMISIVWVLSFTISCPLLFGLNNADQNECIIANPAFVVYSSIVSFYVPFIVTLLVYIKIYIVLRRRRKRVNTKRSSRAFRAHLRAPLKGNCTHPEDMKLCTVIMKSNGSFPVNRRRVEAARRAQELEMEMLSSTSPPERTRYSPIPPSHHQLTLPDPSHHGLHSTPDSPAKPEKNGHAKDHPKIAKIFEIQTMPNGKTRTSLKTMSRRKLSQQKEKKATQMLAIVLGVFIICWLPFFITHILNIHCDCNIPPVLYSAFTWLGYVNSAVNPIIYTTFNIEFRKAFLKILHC

| pEC50 (human D2R/β-arrestin [1]) | pIC50 (human D2R/β-arrestin [2]) | pIC50 (human D2R/β-arrestin [3]) | pEC50 (human D2R/β-arrestin [4]) | SMILES |
| --- | --- | --- | --- | --- |
| < 4.52 | 5.00 to 6.00 | 5.00 to 6.00 | < 4.52 | CC1(Oc2ccc(Cl)cc2)CCN(CCOc2ccc(C(C)(C)O)cc2)CC1 [Compound 155, 2-(4-(2-(4-(4-chlorophenoxy)-4-methylpiperidin-1-yl)ethoxy)phenyl)propan-2-ol] |
| > 7.00 | < 4.52 | < 4.52 | 6.00 to 7.00 | CC1(Oc2ccc(Cl)cc2)CCN(CCOc2cccc(F)c2C(F)(F)F)CC1 [Compound 156, 4-(4-chlorophenoxy)-1-(2-(3-fluoro-2-(trifluoromethyl)phenoxy)ethyl)-4-methylpiperidine] |
| 6.00 to 7.00 | 6.00 to 7.00 | 5.00 to 6.00 | < 4.52 | CC1(Oc2ccc(Cl)cc2)CCN(CCOc2ccc(F)cc2S(C)(=O)=O)CC1 [Compound 158, 4-(4-chlorophenoxy)-1-(2-(4-fluoro-2-(methylsulfonyl)phenoxy)ethyl)-4-methylpiperidine] |
| > 7.00 | 5.00 to 6.00 | 6.00 to 7.00 | < 4.52 | COc1ccc(F)cc1OCCN1CCC(C)(Oc2ccc(Cl)cc2)CC1 [Compound 159, 4-(4-chlorophenoxy)-1-(2-(5-fluoro-2-methoxyphenoxy)ethyl)-4-methylpiperidine] |
| < 4.52 | 6.00 to 7.00 | 5.00 to 6.00 | < 4.52 | COc1cc(F)ccc1OCCN1CCC(C)(Oc2ccc(Cl)cc2)CC1 [Compound 160, 4-(4-chlorophenoxy)-1-(2-(4-fluoro-2-methoxyphenoxy)ethyl)-4-methyl piperidine] |
| > 7.00 | < 4.52 | 4.52 to 5.00 | 6.00 to 7.00 | CC1(Oc2ccc(Cl)cc2)CCN(CCOc2cncs2)CC1 [Compound 161, 5-(2-(4-(4-chlorophenoxy)-4-methylpiperidin-1-yl)ethoxy)thiazole] |
| 5.00 to 6.00 | > 7.00 | 6.00 to 7.00 | < 4.52 | CC1(Oc2ccc(Cl)cc2)CCN(CCOc2ncccc2C(F)(F)F)CC1 [Compound 162, 2-(2-(4-(4-chlorophenoxy)-4-methylpiperidin-1-yl)ethoxy)-3-(trifluoromethyl)pyridine] |
| > 7.00 | < 4.52 | < 4.52 | 5.00 to 6.00 | CC1(Oc2ccc(Cl)cc2)CCN(CCOc2cccnc2C(F)(F)F)CC1 [Compound 163, 3-(2-(4-(4-chlorophenoxy)-4-methylpiperidin-1-yl)ethoxy)-2-(trifluoromethyl)pyridine] |
| 5.00 to 6.00 | < 4.52 | 5.00 to 6.00 | 4.52 to 5.00 | CC1(Oc2ccc(Cl)cc2)CCN(CCOc2cc(Cl)ccc2C(F)(F)F)CC1 [Compound 165, 1-(2-(5-chloro-2-(trifluoromethyl)phenoxy)ethyl)-4-(4-chlorophenoxy)-4-methylpiperidine] |
| 5.00 to 6.00 | 5.00 to 6.00 | 5.00 to 6.00 | < 4.52 | CC1(Oc2ccc(Cl)cc2)CCN(CCOc2ccc3c(c2)NC(=O)CC3)CC1 [Compound 166, 7-(2-(4-(4-chlorophenoxy)-4-methylpiperidin-1-yl)ethoxy)-3,4-dihydroquinolin-2(1H)-one] |
| 5.00 to 6.00 | 5.00 to 6.00 | 5.00 to 6.00 | < 4.52 | CC1(Oc2ccc(Cl)cc2)CCN(CCOc2ccncc2C(F)(F)F)CC1 [Compound 167, 4-(2-(4-(4-chlorophenoxy)-4-methylpiperidin-1-yl)ethoxy)-3-(trifluoromethyl)pyridine] |
| < 4.52 | 5.00 to 6.00 | 5.00 to 6.00 | < 4.52 | CC1(Oc2ccc(Cl)cc2)CCN(CCNc2ccccc2C(F)(F)F)CC1 [Compound 168, N-(2-(4-(4-chlorophenoxy)-4-methylpiperidin-1-yl)ethyl)-2-(trifluoromethyl) aniline] |
| < 4.52 | 6.00 to 7.00 | 5.00 to 6.00 | < 4.52 | CN(CCN1CCC(C)(Oc2ccc(Cl)cc2)CC1)c1ccccc1C(F)(F)F [Compound 169, N-(2-(4-(4-chlorophenoxy)-4-methylpiperidin-1-yl)ethyl)-N-methyl-2-(trifluoromethyl)aniline] |
| < 4.52 | < 4.52 | < 4.52 | < 4.52 | CC(=O)N(CCN1CCC(C)(Oc2ccc(Cl)cc2)CC1)c1ccccc1C(F)(F)F [Compound 170, N-(2-(4-(4-chlorophenoxy)-4-methylpiperidin-1-yl)ethyl)-N-(2-(trifluoromethyl)phenyl)acetamide] |
| 6.00 to 7.00 | < 4.52 | < 4.52 | < 4.52 | CC1(Oc2ccc(Cl)cc2)CCN(CCOc2ccc3cccc(C(F)(F)F)c3n2)CC1 [Compound 171, 2-(2-(4-(4-chlorophenoxy)-4-methylpiperidin-1-yl)ethoxy)-8-(trifluoromethyl)quinoline] |
| 5.00 to 6.00 | < 4.52 | < 4.52 | < 4.52 | CC1(Oc2ccc(Cl)cc2)CCN(CCn2c(=O)ccc3cccc(C(F)(F)F)c32)CC1 [Compound 172, 1-(2-(4-(4-chlorophenoxy)-4-methylpiperidin-1-yl)ethyl)-8-(trifluoromethyl)quinolin-2(1H)-one] |

| pEC50 (human D2R/β-arrestin [1]) | pIC50 (human D2R/β-arrestin [2]) | pIC50 (human D2R/β-arrestin [3]) | pEC50 (human D2R/β-arrestin [4]) | SMILES |
| --- | --- | --- | --- | --- |
| 6.00 to 7.00 | < 4.52 | < 4.52 | 5.00 to 6.00 | CC1(Oc2ccccc2)CCN(CCOc2ccncc2)CC1 [Compound 173, 4-(2-(4-methyl-4-phenoxypiperidin-1-yl)ethoxy)pyridine] |
| > 7.00 | < 4.52 | < 4.52 | 6.00 to 7.00 | CC1(Oc2ccccc2)CCN(CCOc2ccccn2)CC1 [Compound 174, 2-(2-(4-methyl-4-phenoxypiperidin-1-yl)ethoxy)pyridine] |
| > 7.00 | < 4.52 | > 7.00 | 6.00 to 7.00 | CC1(Oc2ccccc2)CCN(CCOc2cccc3[nH]ccc23)CC1 [Compound 175, 4-(2-(4-methyl-4-phenoxypiperidin-1-yl)ethoxy)-1H-indole] |
| < 4.52 | > 7.00 | 6.00 to 7.00 | < 4.52 | CC(C)C1(O)CCN(CCOc2ccccc2C(F)(F)F)CC1 [Compound 176, 4-isopropyl-1-(2-(2-(trifluoromethyl)phenoxy)ethyl)piperidin-4-ol] |
| < 4.52 | 5.00 to 6.00 | 5.00 to 6.00 | < 4.52 | CC1(O)CCN(C2CCCN(c3ccccc3C(F)(F)F)C2)CC1 (stereo not shown) [Compound 177, 4-methyl-1′-(2-(trifluoromethyl)phenyl)-[1,3′-bipiperidin]-4-ol] |
| < 4.52 | > 7.00 | > 7.00 | < 4.52 | Clc1ccc(N2CCCC23CCN(CC2COc4ccccc4O2)CC3)cc1 (stereo not shown) [Compound 178, 1-(4-chlorophenyl)-8-((2,3-dihydrobenzo[b][1,4]dioxin-2-yl)methyl)-1,8-diazaspiro[4.5]decane] |
| < 4.52 | 6.00 to 7.00 | 5.00 to 6.00 | < 4.52 | FC(F)(F)c1ccccc1OCCN1CCC2(CC1)Cc1ccccc1O2 [Compound 179, 1′-(2-(2-(trifluoromethyl)phenoxy)ethyl)-3H-spiro[benzofuran-2,4′-piperidine]] |
| > 7.00 | < 4.52 | 5.00 to 6.00 | < 4.52 | CC1(Oc2ccc(Cl)cc2)CCN(CCOc2cccc(F)c2)C1 (stereo not shown) [Compound 180, 3-(4-chlorophenoxy)-1-(2-(3-fluorophenoxy)ethyl)-3-methylpyrrolidine] |
| < 4.52 | > 7.00 | 5.00 to 6.00 | < 4.52 | c1ccc(OCCN2CCC3(Cc4ccccc4O3)C2)cc1 (stereo not shown) [Compound 181, 1′-(2-phenoxyethyl)-3H-spiro[benzofuran-2,3′-pyrrolidine]] |
| > 7.00 | < 4.52 | < 4.52 | 6.00 to 7.00 | CC1(Oc2ccc(Cl)cc2)CCN(CCOc2cccnc2)CC1 [Compound 182, 3-(2-(4-(4-chlorophenoxy)-4-methylpiperidin-1-yl)ethoxy)pyridine] |
| 6.00 to 7.00 | < 4.52 | 5.00 to 6.00 | 5.00 to 6.00 | CC1(Oc2ccc(Cl)cc2)CCN(CCOc2ccncc2)CC1 [Compound 183, 4-(2-(4-(4-chlorophenoxy)-4-methylpiperidin-1-yl)ethoxy)pyridine] |
| 5.00 to 6.00 | < 4.52 | 4.52 to 5.00 | < 4.52 | CC1(Oc2ccc(Cl)cc2)CCN(CCOc2ccc(C(F)(F)F)c(O)c2)CC1 [Compound 184, 5-(2-(4-(4-chlorophenoxy)-4-methylpiperidin-1-yl)ethoxy)-2-(trifluoromethyl)phenol] |
| 5.00 to 6.00 | < 4.52 | 4.52 to 5.00 | < 4.52 | CC1(Oc2ccc(Cl)cc2)CCN(CCOc2ccc(C#N)cc2)CC1 [Compound 185, 4-(2-(4-(4-chlorophenoxy)-4-methylpiperidin-1-yl)ethoxy)benzonitrile] |
| 6.00 to 7.00 | 6.00 to 7.00 | 5.00 to 6.00 | 5.00 to 6.00 | CC1(Oc2ccc(Cl)cc2)CCN(CCOc2cn[nH]c2)CC1 [Compound 186, 1-(2-((1H-pyrazol-4-yl)oxy)ethyl)-4-(4-chlorophenoxy)-4-methylpiperidine] |
| 6.00 to 7.00 | 5.00 to 6.00 | 5.00 to 6.00 | < 4.52 | CC(=O)c1cc(F)ccc1OCCN1CCC(C)(Oc2ccc(Cl)cc2)CC1 [Compound 187, 1-(2-(2-(4-(4-chlorophenoxy)-4-methylpiperidin-1-yl)ethoxy)-5-fluorophenyl)ethan-1-one] |
